“Also recorded” adds a separate entry of the source.
Assays:
[1] = test system: SW1 melanoma cells; assay: Apoptosis of SW1 cells by FACS (hypodiploid nuclei); format: cell-based, mouse; conditions: SW1 cells expressing peptide, treated with UCN-01; given as control-to-peptide increase
Procedure: (§1) SW1 cells constitutively expressing the indicated ATF2 peptides were transfected with either TRE-Luc (FIG. 5A) or with Jun2-Luc (FIG. 5B), and proteins were prepared for analysis of luciferase activity after 18 hours. Analysis was performed in duplicate, and the data reflect three independent experiments. SW1 cells expressing the ATF2 peptides were analyzed to establish the degree of spontaneous (basal) apoptosis as well as apoptosis 24 hours following treatment with the chemotherapeutic drug UCN-01 (FIG. 5C). The data represent triplicate analysis reproduced three times.
(§2) Effect on Apoptosis. Assessed next was the degree of apoptosis in SW1 cells under normal growth (spontaneous) as well as following treatment with chemotherapeutic drugs. Cells were analyzed to detect spontaneous (basal) or induced apoptosis [following treatment with the kinase inhibitor UCN-01 (kindly provided by NCI repository) for 36 hours]. Apoptosis was measured by using FACS (Ivanov et al., Mol. Cell, 2001, 7:517-28) to quantify the percentage of hypodiploid nuclei undergoing DNA fragmentation. Nucleation as a marker of apoptosis was monitored via DAPI staining of cells at indicated time points after their treatment. Caspase activity was monitored by immunoblots using antibodies to caspase 9 (Santa Cruz). PARP cleavage was monitored by corresponding antibodies (PharMingen).

[2] = biological target: T1, JNK-c-Jun association (Homo sapiens, UniProt P45984); assay: In vitro association of bead-bound JNK with c-Jun; format: binding; conditions: 35S-labeled in vitro translated c-Jun, synthetic peptide
T1 construct: made in house; host or cells: JNK2 from transfected 293T cells; c-Jun from the TNT-coupled reticulocyte lysate system (Promega)
Procedure: (§3) HA-JNK was transfected into 293T cells and 24 h later JNK was immunoprecipitated and bound to protein G beads. Bead-bound JNK was incubated with in vitro-translated c-Jun or ATF2 in the absence or presence of the wt or mutant form of ATF2^51-60. Following incubation bead-bound JNK was washed (see Example 4) and the amount of bound Jun or ATF2 was assessed via SDS-PAGE analysis subjected to autoradiography (Panel A) and quantification with the aid of a phosphor imager (Panels B and C).
(§4) Effect on JNK/Jun Association. The short peptide's ability to elicit major changes in TRE-dependent transcription and spontaneous apoptosis led to an assessment of possible changes in the JNK-Jun association. Flag JNK2 expressed in 293T cells extracted, immunopurified with anti-Flag antibody bound to Protein G agarose beads were first incubated with 3 mg/ml of BSA in phosphate-buffered saline for 2 h, followed by incubation at 4° C. for 2 h with ^35S-labeled in vitro translated c-Jun or ATF2 (TNT-coupled reticulocyte lysate system, Promega) in the presence of WT or mutant peptide. Bead-bound material was subjected to three washes with 20 mM Tris [pH 7.5], 150 mM NaCl, 1 mM EDTA, 1 mM EGTA, 0.5% NP-40, 1 mM NaVO4, and 1 mM DTT supplemented with protease inhibitors. […] Binding was detected by autoradiography and quantified with the aid of a phosphorimager. […]

[3] = test system: Human melanoma cells LU1205; assay: Caspase and PARP cleavage immunoblot in LU1205 cells; format: cell-based; conditions: peptides by transfection, UCN-01 (5 μm) 24 hours
Procedure: (§5) Human melanoma cells LU1205 were transfected with the nucleic acid molecules that encode either ATF2^51-100 peptide or ATF2^51-60 peptide. Twenty-four hours after transfection, cells were treated with of UCN-01 (5 μm) for 24 hours. Immunoblotting analysis was performed using caspase 9 and PARP antibodies, and β-actin was used as a loading control (FIG. 6A). The same experiment was performed in SW-1 cells (FIG. 6B). Stars point to the position of the uncleaved form whereas arrows point to the cleaved products.
as §2

[4] = test system: SW1 cells; assay: Tumor growth of SW1 cells constitutively expressing ATF2 peptides, injected subcutaneously; format: in vivo, mouse; conditions: constitutive expression, 18 days
Procedure: SW1 cells, which constitutively express the peptides indicated in FIG. 4A, were analyzed to detect expression of ATF2 peptides at the RNA level using RT-PCR. The indicated MW bands reflect the expected size product. SW1 cells (10^6) were injected subcutaneously into […] mice and tumor growth was monitored for 18 days, at which point tumors were removed and their size carefully assessed (FIG. 4B). Each group included 6 animals and each experiment was performed twice (P<0.01; T-test).
Inhibition of Tumor Growth. To examine the importance of the JNK association domain on ATF2, the possible role of a smaller peptide containing an intact JNK binding site (i.e., amino acids M^51T^52 of ATF2) was examined. To this end, three peptides of differing sizes (amino acids 51-80, 51-70, and 51-60) were compared to ATF2^51-100 peptide in their ability to inhibit tumor growth of SW1 cells in vivo. RT-PCR reactions confirmed the expression of these peptides' transcripts in the SW1 cells (FIG. 4A). […] However, expression of the 50aa peptide in these cells (constitutive expression based on selection of drug-resistant cells) decreased tumor size to 300 mm^3. Strikingly, constitutive expression of each of the 3 shorter peptides also elicited inhibition of melanoma growth that varied from 400-600 mm^3 (FIG. 4B). […] Further evaluation was performed on this 10 amino acid peptide.

[5] = biological target: T2, JNK-ATF2 association (Homo sapiens, UniProt P45984); assay: In vitro association of bead-bound JNK with ATF2; format: binding; conditions: 35S-labeled in vitro translated ATF2, synthetic peptide
T2 construct: made in house; host or cells: JNK2 from transfected 293T cells; ATF2 from the TNT-coupled reticulocyte lysate system (Promega)
Procedure: as §3, §4

[6] = test system: Jun2-Luc; assay: Jun2-Luc luciferase reporter assay in SW1 cells; format: cell-based, mouse; conditions: SW1 cells expressing peptide, luciferase after 18 hours
Procedure: as §1
(§6) Alteration of ATF2 Transcriptional Activity. Assessed next was whether the short peptide caused any change in transcriptional activity mediated by ATF2 and its heterodimeric partners, using the TRE and Jun2 promoter sequences linked to the Luciferase marker gene. These reporter constructs (0.3 μg) were cotransfected with the respective expression vectors into melanoma cells (5×10^5) using Lipofectamine (Invitrogen). Luciferase activity was measured using the Luciferase assay system (Promega).

[7] = test system: SW-1 cells; assay: Caspase and PARP cleavage immunoblot in SW-1 cells; format: cell-based, mouse; conditions: peptides by transfection, UCN-01 (5 μm) 24 hours
Procedure: as §5, §2

[8] = test system: TRE-Luc; assay: TRE-Luc luciferase reporter assay in SW1 cells; format: cell-based, mouse; conditions: SW1 cells expressing peptide, luciferase after 18 hours
Procedure: as §1, §6

## ATF2^51-60: ATF2 peptide from amino acid residue 51 to 60 (about a 10 amino acid peptide); expressed in cells or synthesized (MTLKFGPARN; UniProt P15336 51-60, looked up, fragment)
[1]
  UCN-01-induced apoptosis: 20-40%
[2]
  association between JNK and c-Jun: increases the in vitro association between JNK and c-Jun in a dose-dependent manner; also recorded: increases Jun association with JNK
[3]
  activation of caspase 9 (cleavage fragments): activation of caspase 9 even prior to treatment with UCN-01
[4]
  inhibition of SW1 melanoma growth in vivo: inhibits melanoma growth in vivo
[4]; listed as 51-60
  inhibition of SW1 melanoma growth in vivo: efficient inhibition close to that observed with the 50 amino acid peptide
[5]
  JNK-ATF2 association: not observed
[6]
  Jun2-Luc transcriptional activity: does not significantly affect Jun2-Luc activity
[6]; listed as 51-60 amino acid peptide
  Jun2-Luc transcriptional activity: no longer inhibited and slightly elevated
[7]
  activation of caspase 9 (cleavage fragments): activation of caspase 9 even prior to treatment with UCN-01
[8]
  TRE-Luc activity: efficient in increasing TRE-Luc activities; also recorded: increases TRE-Luc activity

## CN[C@@H]1C[C@H]2O[C@@](C)([C@@H]1OC)n1c3ccccc3c3c4c(c5c6ccccc6n2c5c31)C(=O)N[C@@H]4O [UCN-01, reference compound]
[3]
  PARP cleavage: PARP cleavage was observed
  activation of caspase 9 (cleavage fragments): caused activation of caspase 9
[7]
  PARP cleavage: PARP cleavage was observed
  activation of caspase 9 (cleavage fragments): caused activation of caspase 9

## ATF2^51-70: ATF2 peptide from amino acid residue 51 to 70 (about a 20 amino acid peptide) (MTLKFGPARNDSVIVADQTP; UniProt P15336 51-70, looked up, fragment)
[4]
  inhibition of SW1 melanoma growth in vivo: efficient inhibition close to that observed with the 50 amino acid peptide

Reference: patent US20090281025A1, “INHIBITION OF TUMOR GROWTH AND METASTASIS BY ATF2-DERIVED PEPTIDES” (Mount Sinai School Of Medicine of New York University, priority 2004, published 2009)
